Results from US9163021B2, “Pyrrolo[3,2-c]pyridine tropomyosin-related kinase inhibitors” (Pfizer Limited, priority 2012, dated 2015).
pIC50: −log10 of the molar value.

Molecular target: TRKA (Homo sapiens (Human), UniProt P04629)
Assay: Isolated TRK enzyme assay (HTRF KinEASE-TK), PV3144 TrkA enzyme assay
Format: biochemical
Conditions: arithmetic mean where more than one reading
In short: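 His-tagged TrkA cytoplasmic domain preactivated with ATP 20 min, then with compound 20 min at room temperature before 1 µM final biotin-TK substrate; HTRF 665/620 nm read.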

Chain of TRKA (P04629 441-796): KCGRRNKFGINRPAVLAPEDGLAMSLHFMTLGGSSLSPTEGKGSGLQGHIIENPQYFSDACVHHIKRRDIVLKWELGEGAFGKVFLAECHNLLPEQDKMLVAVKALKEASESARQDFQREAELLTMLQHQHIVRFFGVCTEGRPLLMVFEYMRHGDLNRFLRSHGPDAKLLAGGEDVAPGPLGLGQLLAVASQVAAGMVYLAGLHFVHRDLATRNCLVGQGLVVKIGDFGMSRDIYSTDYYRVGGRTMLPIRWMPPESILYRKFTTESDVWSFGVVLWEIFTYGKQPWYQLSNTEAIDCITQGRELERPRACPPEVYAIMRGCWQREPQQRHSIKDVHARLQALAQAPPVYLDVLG

SMILES | pIC50
CC(C)n1cc(C(=O)c2cc(NC(=O)Cn3cc(C(F)(F)F)nn3)ccn2)c2cnccc21 [Example 53, N-(2-{[1-(propan-2-yl)-1H-pyrrolo[3,2-c]pyridin-3-yl]carbonyl}pyridin-4-yl)-2-[4-(trifluoromethyl)-1H-1,2,3-triazol-1-yl]acetamide] | 6.96
CC(C)n1cc(C(=O)c2cc(NC(=O)Cc3ccc(C#N)cc3)ccn2)c2cnccc21 [Example 54, 2-(4-cyanophenyl)-N-(2-{[1-(propan-2-yl)-1H-pyrrolo[3,2-c]pyridin-3-yl]carbonyl}pyridin-4-yl)acetamide] | 6.75
CC(C)n1cc(C(=O)c2cc(NC(=O)Cc3ccc(Cl)cn3)ccn2)c2cnccc21 [Example 55, 2-(5-chloropyridin-2-yl)-N-(2-{[1-(propan-2-yl)-1H-pyrrolo[3,2-c]pyridin-3-yl]carbonyl}pyridin-4-yl)acetamide] | 7.13
CC(C)n1cc(C(=O)c2cc(NC(=O)Cc3cnn(C4CC4)c3C(F)(F)F)ccn2)c2cnccc21 [Example 56, 2-[1-cyclopropyl-5-(trifluoromethyl)-1H-pyrazol-4-yl]-N-(2-{[1-(propan-2-yl)-1H-pyrrolo[3,2-c]pyridin-3-yl]carbonyl}pyridin-4-yl)acetamide] | 6.75
CC(C)n1cc(C(=O)c2cc(NC(=O)Cc3cn(C4CC4)nc3C(F)(F)F)ccn2)c2cnccc21 [Example 57] | 5.77
Cc1nn(C)cc1CC(=O)Nc1ccnc(C(=O)c2cn(C(C)C)c3ccncc23)c1 [Example 58, 2-(1,3-dimethyl-1H-pyrazol-4-yl)-N-(2-{[1-(propan-2-yl)-1H-pyrrolo[3,2-c]pyridin-3-yl]carbonyl}pyridin-4-yl)acetamide] | 5.19
CC(CO)n1cc(C(=O)c2cncc(NC(=O)Cn3ccc(C(F)(F)F)n3)c2)c2cnccc21 (stereo not drawn) [Example 60, N-(5-{[1-(1-hydroxypropan-2-yl)-1H-pyrrolo[3,2-c]pyridin-3-yl]carbonyl}pyridin-3-yl)-2-[3-(trifluoromethyl)-1H-pyrazol-1-yl]acetamide] | 7.35
CC(CO)n1cc(C(=O)c2cncc(NC(=O)Cc3ccc(C#N)cc3)c2)c2cnccc21 (stereo not drawn) [Example 67] | 7.00
CC(CO)n1cc(C(=O)c2cncc(NC(=O)Cn3ccc(C(F)(F)F)n3)c2)c2cnccc21 (stereo not drawn) [Example 75, N-(5-{[1-(1-hydroxypropan-2-yl)-1H-pyrrolo[3,2-c]pyridin-3-yl]carbonyl}pyridin-3-yl)-2-[3-(trifluoromethyl)-1H-pyrazol-1-yl]acetamide] | 7.35
Cc1oc(C2CC2)nc1CC(=O)Nc1cc(C(=O)c2cn(C(C)C)c3ccncc23)ccn1 [Example 78, 2-(2-cyclopropyl-5-methyl-1,3-oxazol-4-yl)-N-(4-{[1-(propan-2-yl)-1H-pyrrolo[3,2-c]pyridin-3-yl]carbonyl}pyridin-2-yl)acetamide] | 7.80
CC(C)n1cc(C(=O)c2ccnc(NC(=O)Cc3nc(C4CC4)oc3C3CC3)c2)c2cnccc21 [Example 79, 2-(2,5-dicyclopropyl-1,3-oxazol-4-yl)-N-(4-{[1-(propan-2-yl)-1H-pyrrolo[3,2-c]pyridin-3-yl]carbonyl}pyridin-2-yl)acetamide] | 7.58
COCc1nc(CC(=O)Nc2cc(C(=O)c3cn(C(C)C)c4ccncc34)ccn2)c(C2CC2)o1 [Example 80, 2-[5-cyclopropyl-2-(methoxymethyl)-1,3-oxazol-4-yl]-N-(4-{[1-(propan-2-yl)-1H-pyrrolo[3,2-c]pyridin-3-yl]carbonyl}pyridin-2-yl)acetamide] | 6.45
CC(C)n1cc(C(=O)c2ccnc(NC(=O)Cc3ccc(F)cn3)c2)c2cnccc21 [Example 81, 2-(5-fluoropyridin-2-yl)-N-(4-{[1-(propan-2-yl)-1H-pyrrolo[3,2-c]pyridin-3-yl]carbonyl}pyridin-2-yl)acetamide] | 7.17
CC(C)n1cc(C(=O)c2ccnc(NC(=O)Cc3ccc(Cl)cn3)c2)c2cnccc21 [Example 82, 2-(5-chloropyridin-2-yl)-N-(4-{[1-(propan-2-yl)-1H-pyrrolo[3,2-c]pyridin-3-yl]carbonyl}pyridin-2-yl)acetamide] | 8.21
CC(C)n1cc(C(=O)c2cc(NC(=O)Cn3cc(C(F)(F)F)nn3)ccn2)c2cncc(F)c21 [Example 83, N-(2-{[7-fluoro-1-(propan-2-yl)-1H-pyrrolo[3,2-c]pyridin-3-yl]carbonyl}pyridin-4-yl)-2[4-(trifluoromethyl)-1H-1,2,3-triazol-1-yl]acetamide] | 6.46
CC(C)n1cc(C(=O)c2cc(NC(=O)Cc3ccc(Cl)cc3)ccn2)c2cncc(F)c21 [Example 85, 2-(4-chlorophenyl)-N-(2-{[7-fluoro-1-(propan-2-yl)-1H-pyrrolo[3,2-c]pyridin-3-yl]carbonyl}pyridin-4-yl)acetamide] | 7.63
CC(C)n1cc(C(=O)c2cncc(NC(=O)Cn3cc(C(F)(F)F)nn3)c2)c2cncc(F)c21 [Example 87, N-(5-{[7-fluoro-1-(propan-2-yl)-1H-pyrrolo[3,2-c]pyridin-3-yl]carbonyl}pyridin-3-yl)-2-[4-(trifluoromethyl)-1H-1,2,3-triazol-1-yl]acetamide] | 7.54

SMILES | pIC50
CC(C)n1cc(C(=O)c2cncc(NC(=O)Cc3ccc(F)cn3)c2)c2cncc(F)c21 [Example 88, N-(5-{[7-fluoro-1-(propan-2-yl)-1H-pyrrolo[3,2-c]pyridin-3-yl]carbonyl}pyridin-3-yl)-2-(5-fluoropyridin-2-yl)acetamide] | 7.16
CC(C)n1cc(C(=O)c2cncc(NC(=O)Cn3cc(C4CC4)nn3)c2)c2cncc(F)c21 [Example 89, 2-(4-cyclopropyl-1H-1,2,3-triazol-1-yl)-N-(5-{[7-fluoro-1-(propan-2-yl)-1H-pyrrolo[3,2-c]pyridin-3-yl]carbonyl}pyridin-3-yl)acetamide] | 7.08
CC(C)n1cc(C(=O)c2cncc(NC(=O)Cn3ccc(C4CC4)n3)c2)c2cncc(F)c21 [Example 90, 2-(3-cyclopropyl-1H-pyrazol-1-yl)-N-(5-{[7-fluoro-1-(propan-2-yl)-1H-pyrrolo[3,2-c]pyridin-3-yl]carbonyl}pyridin-3-yl)acetamide] | 7.71
CC(C)n1cc(C(=O)c2cncc(NC(=O)Cn3cc(C4CC4)cn3)c2)c2cncc(F)c21 [Example 91, 2-(4-cyclopropyl-1H-pyrazol-1-yl)-N-(5-{[7-fluoro-1-(propan-2-yl)-1H-pyrrolo[3,2-c]pyridin-3-yl]carbonyl}pyridin-3-yl)acetamide] | 7.82
CC(C)(CO)n1cc(C(=O)c2cncc(NC(=O)Cc3ccc(C#N)cc3)c2)c2cncc(F)c21 [Example 92, 2-(4-cyanophenyl)-N-(5-{[7-fluoro-1-(1-hydroxy-2-methylpropan-2-yl)-1H-pyrrolo[3,2-c]pyridin-3-yl]carbonyl}pyridin-3-yl)acetamide] | 7.40
CC(C)(CO)n1cc(C(=O)c2cncc(NC(=O)Cc3ccc(F)cn3)c2)c2cncc(F)c21 [Example 93, N-(5-{[7-fluoro-1-(1-hydroxy-2-methylpropan-2-yl)-1H-pyrrolo[3,2-c]pyridin-3-yl]carbonyl}pyridin-3-yl)-2-(5-fluoropyridin-2-yl)acetamide] | 7.41
CC(C)(CO)n1cc(C(=O)c2cncc(NC(=O)Cn3cc(C(F)(F)F)nn3)c2)c2cncc(F)c21 [Example 94, N-(5-{[7-fluoro-1-(1-hydroxy-2-methylpropan-2-yl)-1H-pyrrolo[3,2-c]pyridin-3-yl]carbonyl}pyridin-3-yl)-2-[4-(trifluoromethyl)-1H-1,2,3-triazol-1-yl]acetamide] | 7.70
CC(C)(CO)n1cc(C(=O)c2cncc(NC(=O)Cn3ccc(C(F)(F)F)n3)c2)c2cncc(F)c21 [Example 95, N-(5-{[7-fluoro-1-(1-hydroxy-2-methylpropan-2-yl)-1H-pyrrolo[3,2-c]pyridin-3-yl]carbonyl}pyridin-3-yl)-2-[3-(trifluoromethyl)-1H-pyrazol-1-yl]acetamide] | 8.53
CC(C)n1cc(C(=O)c2ccnc(NC(=O)Cc3cccc(Cl)c3)c2)c2cnccc21 [Example 96, 2-(3-chlorophenyl)-N-(4-{[1-(propan-2-yl)-1H-pyrrolo[3,2-c]pyridin-3-yl]carbonyl}pyridin-2-yl)acetamide] | 7.86
CC(C)n1cc(C(=O)c2ccnc(NC(=O)Cc3cccc(CC(C)(C)O)c3)c2)c2cnccc21 [Example 97, 2-[3-(2-hydroxy-2-methylpropyl)phenyl]-N-(4-{[1-(propan-2-yl)-1H-pyrrolo[3,2-c]pyridin-3-yl]carbonyl}pyridin-2-yl)acetamide] | 7.51
CC(C)c1cn(CC(=O)Nc2cc(C(=O)c3cn(C(C)C)c4ccncc34)ccn2)nn1 [Example 98, N-(4-{[1-(propan-2-yl)-1H-pyrrolo[3,2-c]pyridin-3-yl]carbonyl}pyridin-2-yl)-2[4-(propan-2-yl)-1H-1,2,3-triazol-1-yl]acetamide] | 7.39
CC(C)n1cc(C(=O)c2ccnc(NC(=O)Cn3cc(Cl)cn3)c2)c2cnccc21 [Example 99, 2-(4-chloro-1H-pyrazol-1-yl)-N-(4-{[1-(propan-2-yl)-1H-pyrrolo[3,2-c]pyridin-3-yl]carbonyl}pyridin-2-yl)acetamide] | 7.37
CC(C)n1cc(C(=O)c2cncc(NC(=O)Cc3ccccc3Cl)c2)c2cnccc21 [Example 100, 2-(2-chlorophenyl)-N-(5-{[1-(propan-2-yl)-1H-pyrrolo[3,2-c]pyridin-3-yl]carbonyl}pyridin-3-yl)acetamide] | 5.63
COc1ccc(CC(=O)Nc2cc(C(=O)c3cn(C(C)C)c4ccncc34)ccn2)cc1 [Example 101, 2-(4-methoxyphenyl)-N-(4-{[1-(propan-2-yl)-1H-pyrrolo[3,2-c]pyridin-3-yl]carbonyl}pyridin-2-yl)acetamide] | 7.29
CC(C)n1cc(C(=O)c2ccnc(NC(=O)Cn3ccnc3)c2)c2cnccc21 [Example 102, 2-(1H-imidazol-1-yl)-N-(4-{[1-(propan-2-yl)-1H-pyrrolo[3,2-c]pyridin-3-yl]carbonyl}pyridin-2-yl)acetamide] | 5.13
CC(C)n1cc(C(=O)c2ccnc(NC(=O)Cc3ccc(Cl)cc3)c2)c2cnccc21 [Example 103, 2-(4-chlorophenyl)-N-(4-{[1-(propan-2-yl)-1H-pyrrolo[3,2-c]pyridin-3-yl]carbonyl}pyridin-2yl)acetamide] | 7.82
